Experimental data: publication PMC10141620 (Viruses, 2023)
≈ marks a conversion by molar mass, not a printed value. Like-named read-outs stand apart in the source and are kept apart here.

How the values were obtained:
[1] = in vitro; conditions: human
[2] = system: NL4-3ΔEnv-NanoLuc/SARS-CoV-2 (USA-WA1/2020) pseudovirus; experiment: organism not typed; type: cell-based
[3] = target: CYP2D6 (Homo sapiens, UniProt P10635); experiment: biochemical
[4] = system: NL4-3ΔEnv-NanoLuc/MERS-CoV pseudovirus; experiment: microbe, parasite or virus in culture; type: cell-based; conditions: Middle East respiratory syndrome-related coronavirus
[5] = target: CYP2C19 (Homo sapiens, UniProt P33261); experiment: biochemical
Sequence of CYP2C19 (P33261 whole entry): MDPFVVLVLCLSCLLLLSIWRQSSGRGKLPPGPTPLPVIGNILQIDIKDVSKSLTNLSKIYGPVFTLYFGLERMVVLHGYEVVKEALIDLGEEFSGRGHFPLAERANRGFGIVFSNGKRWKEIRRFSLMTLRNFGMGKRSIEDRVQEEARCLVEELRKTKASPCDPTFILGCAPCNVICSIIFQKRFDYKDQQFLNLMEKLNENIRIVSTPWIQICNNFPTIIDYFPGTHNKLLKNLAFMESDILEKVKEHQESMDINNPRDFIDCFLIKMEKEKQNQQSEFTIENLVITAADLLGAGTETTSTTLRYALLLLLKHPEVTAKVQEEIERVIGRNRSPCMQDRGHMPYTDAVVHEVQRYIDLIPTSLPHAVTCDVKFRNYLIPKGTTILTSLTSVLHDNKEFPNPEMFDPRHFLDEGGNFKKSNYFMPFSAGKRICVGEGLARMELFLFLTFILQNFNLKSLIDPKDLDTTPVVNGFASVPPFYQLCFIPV

[6] = in vitro; conditions: human; remark: listed apart in the source
[7] = system: SARS-CoV-2 spike (Wuhan-Hu-1) mediated cell-to-cell fusion, Jurkat donor / 293T/ACE2 acceptor cells; experiment: microbe, parasite or virus in culture; type: cell-based; conditions: Severe acute respiratory syndrome coronavirus 2, 4 h; read-out: IC50, cell-to-cell fusion inhibition
[8] = target: CYP1A2 (Homo sapiens, UniProt P05177); experiment: biochemical
Sequence of CYP1A2 (P05177 whole entry): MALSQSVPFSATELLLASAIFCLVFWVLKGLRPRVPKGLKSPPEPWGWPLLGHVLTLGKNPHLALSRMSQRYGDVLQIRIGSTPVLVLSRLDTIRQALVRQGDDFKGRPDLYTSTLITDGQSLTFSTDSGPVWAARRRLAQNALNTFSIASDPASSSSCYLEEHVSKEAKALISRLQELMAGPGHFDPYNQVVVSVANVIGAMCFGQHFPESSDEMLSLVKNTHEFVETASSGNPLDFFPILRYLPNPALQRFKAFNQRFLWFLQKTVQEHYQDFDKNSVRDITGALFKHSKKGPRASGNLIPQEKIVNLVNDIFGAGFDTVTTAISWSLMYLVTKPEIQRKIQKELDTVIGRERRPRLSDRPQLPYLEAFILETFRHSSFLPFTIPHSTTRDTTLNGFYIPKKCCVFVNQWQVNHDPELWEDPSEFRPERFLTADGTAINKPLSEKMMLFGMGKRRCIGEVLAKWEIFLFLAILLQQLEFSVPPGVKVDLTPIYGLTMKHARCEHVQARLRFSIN

[9] = system: SARS-CoV-1 Urbani; experiment: microbe, parasite or virus in culture; type: cell-based; conditions: Severe acute respiratory syndrome coronavirus, Calu-3, read-out: IC50, SARS-CoV-1 Urbani
[10] = in vitro; conditions: human; remark: listed apart in the source
[11] = physchem; conditions: pH 7.4
[12] = system: SARS-CoV-2 strains, SARS-COV-1, and MERS-CoV pseudoviruses; experiment: organism not typed; type: cell-based; conditions: Calu-3, read-out: IC50, range over all the viral clones evaluated
[13] = target: CYP2B6 (Homo sapiens, UniProt P20813); experiment: biochemical
Sequence of CYP2B6 (P20813 whole entry): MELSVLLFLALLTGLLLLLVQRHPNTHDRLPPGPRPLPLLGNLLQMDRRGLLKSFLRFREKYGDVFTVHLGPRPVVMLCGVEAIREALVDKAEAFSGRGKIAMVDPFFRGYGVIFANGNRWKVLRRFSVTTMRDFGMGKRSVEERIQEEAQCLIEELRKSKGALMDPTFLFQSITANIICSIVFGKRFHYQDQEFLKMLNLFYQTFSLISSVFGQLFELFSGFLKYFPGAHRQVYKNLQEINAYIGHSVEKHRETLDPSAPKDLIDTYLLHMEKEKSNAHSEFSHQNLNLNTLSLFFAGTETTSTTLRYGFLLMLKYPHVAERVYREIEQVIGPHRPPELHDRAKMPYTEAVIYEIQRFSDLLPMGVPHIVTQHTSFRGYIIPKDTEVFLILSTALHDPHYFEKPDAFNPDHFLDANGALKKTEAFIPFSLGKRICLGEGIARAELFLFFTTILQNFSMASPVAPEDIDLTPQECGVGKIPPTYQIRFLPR

[14] = in vitro; conditions: human; remark: listed apart in the source
[15] = system: MERS-CoV, EMC/2012; experiment: microbe, parasite or virus in culture; type: cell-based; conditions: Middle East respiratory syndrome-related coronavirus, Calu-3, read-out: IC50, MERS-CoV
[16] = Plasma protein binding; conditions: human, pH 7.4
[17] = system: NL4-3ΔEnvLuc/A-MLV pseudovirus; experiment: microbe, parasite or virus in culture; type: cell-based, amphotropic murine leukemia virus (A-MLV); conditions: 293T/ACE2, read-out: A-MLV IC50
[18] = in vitro; conditions: human; remark: listed apart in the source
[19] = in vitro; conditions: human, microsomes, pH 7.4
[20] = target: CYP2C8 (Homo sapiens, UniProt P10632); experiment: biochemical
Sequence of CYP2C8 (P10632 whole entry): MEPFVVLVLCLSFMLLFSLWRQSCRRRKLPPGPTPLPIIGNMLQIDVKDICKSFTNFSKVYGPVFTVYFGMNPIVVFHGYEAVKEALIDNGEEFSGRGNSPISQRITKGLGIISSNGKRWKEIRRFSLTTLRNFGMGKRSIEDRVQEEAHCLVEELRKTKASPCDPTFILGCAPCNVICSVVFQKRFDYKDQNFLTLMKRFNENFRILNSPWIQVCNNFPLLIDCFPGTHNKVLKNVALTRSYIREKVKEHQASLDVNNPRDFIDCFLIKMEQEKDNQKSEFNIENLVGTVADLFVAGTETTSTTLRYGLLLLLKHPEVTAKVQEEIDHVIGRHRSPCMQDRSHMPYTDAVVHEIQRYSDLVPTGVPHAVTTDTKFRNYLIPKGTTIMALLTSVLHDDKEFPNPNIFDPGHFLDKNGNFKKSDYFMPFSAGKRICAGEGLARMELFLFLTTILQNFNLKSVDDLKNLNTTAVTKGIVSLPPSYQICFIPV

[21] = system: NL4-3ΔEnv-NanoLuc/SARS-CoV-1 pseudovirus; experiment: microbe, parasite or virus in culture; type: cell-based; conditions: Severe acute respiratory syndrome coronavirus
[22] = target: CYP2C9 (Homo sapiens, UniProt P11712); experiment: biochemical
Sequence of CYP2C9 (P11712 whole entry): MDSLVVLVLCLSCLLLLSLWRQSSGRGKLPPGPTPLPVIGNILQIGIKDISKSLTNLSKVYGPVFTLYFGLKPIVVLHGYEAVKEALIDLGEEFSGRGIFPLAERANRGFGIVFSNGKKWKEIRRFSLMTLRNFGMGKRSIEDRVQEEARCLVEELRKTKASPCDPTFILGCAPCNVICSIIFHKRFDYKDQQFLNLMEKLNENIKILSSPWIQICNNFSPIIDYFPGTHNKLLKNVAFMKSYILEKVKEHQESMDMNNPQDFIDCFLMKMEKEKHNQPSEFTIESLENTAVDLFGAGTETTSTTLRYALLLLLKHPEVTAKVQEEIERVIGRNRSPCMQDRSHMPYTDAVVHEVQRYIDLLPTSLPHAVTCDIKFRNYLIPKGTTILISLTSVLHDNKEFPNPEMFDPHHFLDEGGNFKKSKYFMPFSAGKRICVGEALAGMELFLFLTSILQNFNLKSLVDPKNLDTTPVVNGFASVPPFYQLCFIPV

[23] = pH 7.4
[24] = in vitro; conditions: human; remark: listed apart in the source
[25] = in vitro; conditions: human; remark: listed apart in the source

Sequence of CYP2D6 (P10635 whole entry): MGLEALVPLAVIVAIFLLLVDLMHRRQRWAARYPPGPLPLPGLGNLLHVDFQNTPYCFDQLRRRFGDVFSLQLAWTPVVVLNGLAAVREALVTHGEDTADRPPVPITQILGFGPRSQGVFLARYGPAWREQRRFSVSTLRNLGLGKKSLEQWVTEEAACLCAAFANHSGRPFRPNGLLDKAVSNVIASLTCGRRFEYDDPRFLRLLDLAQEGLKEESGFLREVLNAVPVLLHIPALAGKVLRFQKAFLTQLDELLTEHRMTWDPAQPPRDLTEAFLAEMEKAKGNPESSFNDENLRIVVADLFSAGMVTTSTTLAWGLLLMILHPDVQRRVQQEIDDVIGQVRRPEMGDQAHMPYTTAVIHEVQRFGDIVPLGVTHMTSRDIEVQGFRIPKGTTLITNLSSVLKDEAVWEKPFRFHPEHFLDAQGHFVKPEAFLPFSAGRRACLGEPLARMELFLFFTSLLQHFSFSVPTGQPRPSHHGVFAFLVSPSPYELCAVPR

Cc1cc2nc3s/c(=C/c4ccc(-c5cccc(C(=O)O)c5)o4)c(=O)n3c2cc1C [NBCoV63]
CC50 [1]: > 50000 nM
antiviral activity (in words) [2]: Active
IC50 ([2]; Calu-3, read-out: SARS-CoV-2 USA-WA1/2020 IC50): 120 ± 6 nM
IC50 ([2]; Pseudovirus, 293T/ACE2): 80 ± 7 nM
IC50 ([2]; Pseudovirus, A549-ACE2): 55 ± 3 nM
IC50 [3]: > 25000 nM
IC50 ([4]; Caco-2, read-out: MERS-CoV IC50): 75 ± 25 nM
IC50 ([4]; Calu-3, read-out: MERS-CoV IC50): 220 ± 30 nM
IC50 ([4]; MRC5, read-out: MERS-CoV IC50): 102 ± 1 nM
IC50 [5]: > 25000 nM
CC50 [6]: > 50000 nM
IC50 [7]: 900 nM
IC50 [8]: > 25000 nM
IC50 [9]: 3980 nM
CC50 [10]: ≥ 50000 nM
solubility [11]: 6.25 µM (≈ 2.6 µg/mL)
IC50 [12]: 120 to 220 nM
IC50 [13]: > 25000 nM
CC50 [14]: 50000 nM
IC50 [15]: 8010 nM
fraction unbound at 4 h, 5 µM [16]: < 0.005
IC50 [17]: 303 ± 29 nM
CC50 [18]: ≥ 50000 nM
half-life [19]: > 3 h
microsomal CLint [19]: 3.4 µL/min/mg
IC50 [20]: > 25000 nM
IC50 ([21]; 293T/ACE2, read-out: SARS-CoV-1 IC50): 110 ± 0.5 nM
IC50 ([21]; A549-ACE2, read-out: SARS-CoV-1 IC50): 59 ± 1.5 nM
IC50 ([21]; Calu-3, read-out: SARS-CoV-1 IC50): 133 ± 28 nM
IC50 [22]: > 25000 nM
solubility [23]: low
efflux ratio ([24]; Caco-2): 42.3
Papp A→B ([24]; Caco-2, pH 7.4): 0.00242 ×10⁻⁶ cm/s
Papp B→A ([24]; Caco-2, pH 7.4): 0.19 ×10⁻⁶ cm/s
CC50 [25]: > 50000 nM
